The values that follow come from PubChem BioAssay AID248 (DTP/NCI, 2004).

Structures are written as SMILES. “And” between values parts separate entries of the source, which are not always exact repeats. Identical values can stand only once. Inconclusive results and toxic doses are left out.

The test system of the assay is L1210 leukemia ip in BDF1 mice, survival T/C. Briefly: NCI In Vivo Anticancer Drug Screen. Data for tumor model L1210 Leukemia (intraperitoneal) in B6D2F1 (BDF1) mice. The conditions noted are these: endpoint: mean survival time, higher = longer survival. An outline of the steps:
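Mice bearing the transplanted tumor received compound or vehicle. Survival of the treated group was divided by that of the vehicle-treated control group to give the ratio.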

The mark [1] stands for this setting: dose: 100.0 mg/kg/injection, schedule: Q01DX001 (ip), vehicle: saline.
The mark [2] stands for this setting: dose: 200.0 mg/kg/injection, schedule: Q01DX001 (ip), vehicle: saline.

As to `CN[C@H]1CCc2cc(OC)c(OC)c(OC)c2-c2ccc(OC)c(=O)cc21`, the T/C is 95 % of control (dose: 0.14 mg/kg/injection, schedule: Q01DX009 (ip), vehicle: saline); 104 % of control (dose: 0.23 mg/kg/injection, schedule: Q01DX009 (ip), vehicle: saline); 112 % of control (dose: 0.39 mg/kg/injection, schedule: Q01DX009 (ip), vehicle: saline); 101 % of control (dose: 0.39 mg/kg/injection, schedule: Q04DX003 (ip), vehicle: saline); 110 % of control (dose: 0.65 mg/kg/injection, schedule: Q01DX009 (ip), vehicle: saline); 102 % of control (dose: 0.65 mg/kg/injection, schedule: Q04DX003 (ip), vehicle: saline). Also, the T/C is 118 % of control (dose: 1.0 mg/kg/injection, schedule: Q03HX008 (ip), vehicle: saline); 110 % of control (dose: 1.08 mg/kg/injection, schedule: Q01DX009 (ip), vehicle: saline); 101 % of control (dose: 1.08 mg/kg/injection, schedule: Q04DX003 (ip), vehicle: saline); 101 % of control (dose: 1.8 mg/kg/injection, schedule: Q04DX003 (ip), vehicle: saline); 106 % of control (dose: 2.0 mg/kg/injection, schedule: Q01DX004 (ip), vehicle: saline); 103 % of control (dose: 2.0 mg/kg/injection, schedule: Q01DX004 (oral), vehicle: saline). Moreover, the T/C runs as follows: (dose: 2.0 mg/kg/injection, schedule: Q03HX008 (ip), vehicle: saline) 120 % of control; (dose: 3.0 mg/kg/injection, schedule: Q01DX001 (ip), vehicle: saline) 100 % of control; (dose: 3.0 mg/kg/injection, schedule: Q04DX003 (ip), vehicle: saline) 95 % of control; (dose: 4.0 mg/kg/injection, schedule: Q01DX001 (oral), vehicle: saline) 103 % of control; (dose: 4.0 mg/kg/injection, schedule: Q01DX004 (ip), vehicle: saline) 106 % of control; (dose: 4.0 mg/kg/injection, schedule: Q01DX004 (oral), vehicle: saline) 111 % of control. For the same compound, the T/C reads like this: (dose: 5.0 mg/kg/injection, schedule: Q01DX001 (ip), vehicle: saline) 103 % of control; (dose: 5.3 mg/kg/injection, schedule: Q01DX001 (ip), vehicle: saline) 102 % of control; (dose: 8.0 mg/kg/injection, schedule: Q01DX001 (ip), vehicle: saline) 101 % of control and 102 % of control; (dose: 8.0 mg/kg/injection, schedule: Q01DX001 (oral), vehicle: saline) 108 % of control; (dose: 8.0 mg/kg/injection, schedule: Q01DX004 (ip), vehicle: saline) 113 % of control; (dose: 8.0 mg/kg/injection, schedule: Q01DX004 (oral), vehicle: saline) 111 % of control. The T/C was 156 % of control (dose: 8.0 mg/kg/injection, schedule: Q03HX008 (ip), vehicle: saline); 119 % of control (dose: 8.0 mg/kg/injection, schedule: Q## X002 (ip), vehicle: saline); 100 % of control (dose: 8.0 mg/kg/injection, schedule: Q## X003 (ip), vehicle: saline); 107 % of control (dose: 8.0 mg/kg/injection, schedule: Q## X008 (ip), vehicle: saline); 110 % of control (dose: 8.0 mg/kg/injection, schedule: Q## X016 (ip), vehicle: saline); 104 % of control (dose: 9.0 mg/kg/injection, schedule: Q01DX001 (ip), vehicle: saline). In addition, the T/C (dose: 12.0 mg/kg/injection, schedule: Q01DX001 (ip), vehicle: saline) was 104 % of control; the T/C (dose: 16.0 mg/kg/injection, schedule: Q01DX001 (ip), vehicle: saline) is 105 % of control; the T/C (dose: 16.0 mg/kg/injection, schedule: Q01DX001 (oral), vehicle: saline) is 109 % of control; the T/C (dose: 16.0 mg/kg/injection, schedule: Q01DX004 (ip), vehicle: saline) is 118 % of control; the T/C (dose: 16.0 mg/kg/injection, schedule: Q## X002 (ip), vehicle: saline) was 98 % of control; the T/C (dose: 16.0 mg/kg/injection, schedule: Q## X003 (ip), vehicle: saline) is 112 % of control. The T/C runs as follows: (dose: 16.0 mg/kg/injection, schedule: Q## X016 (ip), vehicle: saline) 112 % of control; (dose: 16.0 mg/kg/injection, schedule: Q## X024 (ip), vehicle: saline) 100 % of control; (dose: 18.0 mg/kg/injection, schedule: Q01DX001 (ip), vehicle: saline) 114 % of control; (dose: 32.0 mg/kg/injection, schedule: Q01DX001 (ip), vehicle: saline) 101 % of control and 103 % of control; (dose: 32.0 mg/kg/injection, schedule: Q01DX001 (oral), vehicle: saline) 119 % of control and 124 % of control; (dose: 32.0 mg/kg/injection, schedule: Q01DX009 (ip), vehicle: saline) 102 % of control. Also, the T/C was 117 % of control (dose: 32.0 mg/kg/injection, schedule: Q## X002 (ip), vehicle: saline); 104 % of control (dose: 32.0 mg/kg/injection, schedule: Q## X003 (ip), vehicle: saline); 110 % of control (dose: 32.0 mg/kg/injection, schedule: Q## X016 (ip), vehicle: saline); 114 % of control and 116 % of control (dose: 64.0 mg/kg/injection, schedule: Q01DX001 (ip), vehicle: saline); 89 % of control (dose: 64.0 mg/kg/injection, schedule: Q## X016 (ip), vehicle: saline); 124 % of control (dose: 128.0 mg/kg/injection, schedule: Q01DX001 (ip), vehicle: saline). In addition, the T/C (dose: 256.0 mg/kg/injection, schedule: Q01DX001 (ip), vehicle: saline) was 123 % of control.

As to `CCC1(O)C(=O)OCc2c1cc1n(c2=O)CCC1` (stereo not given), the T/C runs as follows: (dose: 12.5 mg/kg/injection, schedule: Q01DX001 (ip), vehicle: saline) 113 % of control; (dose: 25.0 mg/kg/injection, schedule: Q01DX001 (ip), vehicle: saline) 106 % of control and 110 % of control; (dose: 50.0 mg/kg/injection, schedule: Q01DX001 (ip), vehicle: saline) 102 % of control; under setting [1], 101 % of control; under setting [2], 98 % of control.

As for `CCCCCCCCC(=O)N(C(C)C)C(C)C`, the T/C is 93 % of control and 102 % of control (dose: 100.0 mg/kg/injection, schedule: Q01DX009 (ip), vehicle: carboxymethylcellulose (CMC)); 98 % of control and 101 % of control (dose: 100.0 mg/kg/injection, schedule: Q04DX002 (ip), vehicle: carboxymethylcellulose (CMC)); 93 % of control and 96 % of control (dose: 200.0 mg/kg/injection, schedule: Q01DX009 (ip), vehicle: carboxymethylcellulose (CMC)); 95 % of control and 92 % of control (dose: 200.0 mg/kg/injection, schedule: Q04DX002 (ip), vehicle: carboxymethylcellulose (CMC)); 92 % of control (dose: 400.0 mg/kg/injection, schedule: Q01DX009 (ip), vehicle: carboxymethylcellulose (CMC)); 87 % of control and 92 % of control (dose: 400.0 mg/kg/injection, schedule: Q04DX002 (ip), vehicle: carboxymethylcellulose (CMC)).

Take `COC(=O)c1ccccc1N=Nc1cc(C)c(C)cc1O`: the T/C was 88 % of control (dose: 100.0 mg/kg/injection, schedule: Q01DX009 (ip), vehicle: Klucel (hydroxypropylcellulose) (HPC)); 88 % of control (dose: 200.0 mg/kg/injection, schedule: Q01DX009 (ip), vehicle: Klucel (hydroxypropylcellulose) (HPC)); 91 % of control (dose: 400.0 mg/kg/injection, schedule: Q01DX009 (ip), vehicle: Klucel (hydroxypropylcellulose) (HPC)).

As to `CC(C)(C)C(=O)c1nn[nH]n1`, the T/C (dose: 50.0 mg/kg/injection, schedule: Q01DX009 (ip), vehicle: saline) is 91 % of control; the T/C under setting [1] is 104 % of control; the T/C (dose: 100.0 mg/kg/injection, schedule: Q01DX009 (ip), vehicle: saline) was 98 % of control; the T/C under setting [2] was 102 % of control.

Take `CCO/C=C/C(=O)NC(=S)Nc1ccccc1`: the T/C reads like this: (dose: 100.0 mg/kg/injection, schedule: Q01DX001 (ip), vehicle: saline with Tween-80) 97 % of control; (dose: 100.0 mg/kg/injection, schedule: Q01DX009 (ip), vehicle: saline with Tween-80) 86 % of control; (dose: 200.0 mg/kg/injection, schedule: Q01DX001 (ip), vehicle: saline with Tween-80) 100 % of control; (dose: 200.0 mg/kg/injection, schedule: Q01DX009 (ip), vehicle: saline with Tween-80) 86 % of control; (dose: 400.0 mg/kg/injection, schedule: Q01DX001 (ip), vehicle: saline with Tween-80) 102 % of control.

As to `NC(=S)N/N=C\c1c(Cl)[nH]c2ccc(/C=N/NC(N)=S)cc12`, the T/C (dose: 50.0 mg/kg/injection, schedule: Q04DX002 (ip), vehicle: Klucel (hydroxypropylcellulose) (HPC)) was 97 % of control; the T/C (dose: 100.0 mg/kg/injection, schedule: Q04DX002 (ip), vehicle: Klucel (hydroxypropylcellulose) (HPC)) was 90 % of control; the T/C (dose: 200.0 mg/kg/injection, schedule: Q04DX002 (ip), vehicle: Klucel (hydroxypropylcellulose) (HPC)) is 94 % of control.
